Columns and labels:
Assay type in all cases: cell-based
BT-549 cells = assay: CellTiter-Glo relative growth (luminescent ATP)
Protocol: HEK 293T, MDA-MB-231, MDA-MB-468, Hs578T and BT-549 cells (American Type Culture Collection) were cultured at 37° C. with 5% CO2 in Dulbecco's modified Eagle's medium containing (DMEM) (Gibco) supplemented with 5% FBS (HyClone), 100 units/ml penicillin, […] streptomycin (Gibco), non-essential amino acids (Gibco) and 2 mM 1-glutamine (Gibco). Doxorubicin (Selleckchem), cisplatin (Sigma) or olaparib (Selleckchem) were dissolved in DMSO or DMF (cisplatin). […] Pure NO2-OA was diluted in DMSO and added to cells after solvation in assay media. Relative cell numbers were compared by measuring the luminescent signal generated by ATP using the CellTiter-Glo (Promega) assay. Cells were plated in a 96-well plate at 5,000 (MDA-MB-231) or 6,600 (BT549 or Hs578T) cells per well.
Data represent the mean±SEM from 3 independent experiments unless otherwise noted. A p value<0.05 was considered statistically significant. Non-linear curves were generated in GraphPad Prism 7.0 (GraphPad Software, La Jolla, CA, USA) for statistical analysis. EC50 values and standard error were calculated from three independent experiments utilizing a non-linear dose response variable slope model. Significance was tested by one-way ANOVA for multiple groups with Tukey posttest or by t-test when groups were less than three. RAD51 foci number was analyzed with ImageJ. Nuclear boundaries were individually identified in more than 50 cells per treatment group in three independent experiments.
The growth of BT-549 cells was not affected. […] MDA-MB-231 cells were plated in a 96 well plate and treated with talazoparib (0.01-75 μM) plus OA-NO2 or NDA-NO2 (0.2-12 μM) daily for 3 days. Growth inhibition (relative cell numbers) of MDA-MB-231 cells was determined by luminescent detection of ATP (CellTiter-Glo) (FIG. 1K).

[1] = tested on: NHEJ (EJ5-GFP, U2OS cells); assay: EJ5-GFP NHEJ reporter assay in U2OS cells; conditions: 5 μM, 48 h flow cytometry or 68 h live-cell microscopy
Protocol: Measurements of NHEJ, HR, Alt-EJ and SSA assays were performed as previously described. HR activity was measured by counting GFP-positive cells by flow cytometry at the MWRI flow cytometry core using a BD LSRII (BD Biosciences). RAD51 overexpressing cells were generated by stable transfection of pLVX RAD51 IRES Neo and selection with geneticin (Invitrogen).
U2OS cells were prepared as above, but 5 h following compound treatment, cells were transferred into the Incucyte Zoom (Essen) live-cell imaging automated fluorescence microscope at 37° C. with 5% CO2. Cell confluence and green object count per mm2 were determined using Incucyte Zoom software. […]
NO2-OA-dependent effects on HR DNA repair were further investigated by utilizing a DRGFP reporter assay. This analysis quantifies intracellular recombination of an integrated cDNA cassette of two tandem non-fluorescent GFP constructs following introduction of an I-SceI cleavage to the system by measuring the fluorescent GFP protein that is produced following successful recombination. […] A novel strategy was used to measure the kinetics of changes in HR in live cells by using automated fluorescence microscopy to track the emergence of GFP positive cells over time in monolayers, as opposed to making static measurements of detached cells using flow cytometry. […]

MCF-10A cells [2] = assay: RAD51 foci and γH2AX immunofluorescence after 5 Gy IR
Protocol: FIGS. 1A-1K. […] FIG. 1A. […] FIG. 1C. […] EC50 values indicate average+SEM, n=3. FIGS. 1D-1F. […] FIG. 1G. […] FIGS. 1H-1I. […] Merged samples include DAPI stained nuclei (blue). […] The average percentages of cells with 5 or more foci from confocal z-stacked images are indicated from 0 or 5 Gy samples+SEM. FIG. 1J. […] Rad51 foci were counted and γH2AX intensities were assessed by ImageJ in 5Gy irradiated cells (histograms), that were analyzed by immunofluorescence (IF). FIG. 1K, upper part. […] FIG. 1K, lower part. Combination index (CI) was calculated by the Chou-Talalay method. CI<1 is synergistic. Data represent the mean from three independent experiments.
To analyze RAD51 foci formation, 10,000 cells were plated to CultureWell 16-well chambered cover glass (MIDSCI) coated with poly-L-lysine (Sigma) and incubated overnight in 5% FBS media. […] Cells were fixed with 10% formalin for 20 min at 4° C. and immunostained with RAD51 (Santa Cruz) or γH2AX (EMD Biosciences) antibodies. Z-stack images were acquired using a Nikon AIR confocal microscope with 60× oil objective and acquisition performed using NIS elements software. Quantification of z-stacks and foci were completed using ImageJ software.

MCF-10A cells [3] = assay: Western blot of cell cycle and apoptosis proteins; conditions: 5 μM, 24 hr
Protocol: (§1) Western blotting was performed. 20-60 μg of total lysates per lane were loaded on 7%, 10%, or 12% SDS-PAGE and transferred onto nitrocellulose or polyvinylidene difluoride membranes (Bio-Rad). The membranes were probed with primary antibodies against caspase-3, multi-drug resistance protein-1 (MRP1), poly [ADP ribose] polymerase-1 (PARP-1), ubiquitin, RelA; cyclin D1, p21, caspase-9, MRP4, IKKβ, pIKKβ, IκBα, or pIκBα (Cell Signaling); caspase-8 (R&D Systems). Samples were normalized to β-actin (Sigma-Aldrich) or GAPDH (Trevigen).

[4] = tested on: MDA-MB-231 and MDA-MB-468 cells; assay: Western blot of cell cycle and apoptosis proteins; conditions: 5 μM, 24 hr
Protocol: as §1

TNBC cells = assay: Cellular H2O2 production; conditions: short term and extended (6 hr) treatment
[5] = tested on: RelA in MDA-MB-231 and MDA-MB-468 cells; assay: RelA protein level and polyubiquitination
Protocol: Lysates were clarified by centrifugation at 14,000×g for 10 min. Protein lysates (1 mg) were incubated with anti-RelA antibody and Protein G/A conjugated agarose beads (EMD Millipore, Bedford, MA) at 4° C., overnight. Immunoprecipitation fraction were obtained by centrifugation at 14,000×g for 1 min at RT and washed with lysis buffer three times. The immunoprecipitated RelA was resolved by 8% SDSPAGE gel, and transferred to nitrocellulose membrane (Bio-Rad) for immunoblotting probed with an anti-ubiquitin antibody (Santa Cruz Biotechnology). The blot was then stripped and probed with an anti-RelA antibody to assess amounts of RelA protein pull-down.
as §1

With CCCCCCCCC(=CCCCCCCCC(=O)O)[N+](=O)[O-] [NO2-OA, 10-nitro-octadec-9-enoic acid] the EC50 (BT-549 cells; Homo sapiens, BT-549, 72 h, read-out: EC50 for growth inhibition) was 3.78 ± 0.48 µM, the “growth inhibition with cisplatin, suppressed” value (BT-549 cells; cisplatin 72 h plus daily 2 μM NO2-OA, printed as suppressed) was 1.4 fold and the “enhanced growth inhibition of doxorubicin” value (BT-549 cells; doxorubicin 72 h plus daily 2 μM NO2-OA) was “not affected”. The “enhanced growth inhibition of olaparib” value (BT-549 cells; olaparib 72 h plus daily 2 μM NO2-OA) was 3 fold, the “effect on NHEJ (GFP positive cells)” value [1] was “no effect” and the “RAD51 foci / γH2AX in irradiated benign cells” value (MCF-10A cells [2]) was “no effect”. The PARP-1 cleavage (MCF-10A cells [3]) was “but not in MCF-10A cells”, the PARP-1 cleavage [4] was “promoted caspase-3-mediated cleavage of PARP-1” and the “caspase-8 and caspase-9 cleavage” value [4] was “increased cleavage of caspase-8 and caspase-9”. The “p21 and cyclin D1 protein expression” value [4] was “an increase in p21 and a decrease in cyclin D1 protein expression”, the “cellular rates of H2O2 production” value (TNBC cells) was “did not significantly impact cellular rates of H2O2 production” and the “polyubiquitination of RelA” value ([5]; 5 μM, 5 hr) was “promoted polyubiquitination of RelA”. For the same compound, the RelA protein abundance ([5]; 5 μM, 24 hr) was “decreased the abundance of RelA” and the “RelA mRNA levels” value ([5]; all three cell lines (MDA-MB-231, MDA-MB-468, MCF-10A)) was “not altered”.

— patent publication US12390435B2, “Electrophiles and electrophile pro-drugs as RAD51 inhibitors” (University of Pittsburgh—Of the Commonwealth System of …, priority 2018, dated 2025)
